Where two headings read alike, the source gives them in different places. Values belong to the compound of their own block, whether it stands above or below them.
What was measured:
[1] = biological target: T1, AaDOP2 (Aedes aegypti, UniProt H6D5H2); experiment: LOPAC1280 antagonist screen in HEK-CRELuc-Aadop2 cells; assay type: cell-based
[2] = biological target: Isdop2 (Ixodes scapularis, UniProt A0ACM8DGL0); experiment: cell-based; details: for inhibition at 10 µM: read-out: % Inhibition (of response to dopamine), Isdop2 screen
Sequence of Isdop2 (A0ACM8DGL0 entry or part of it): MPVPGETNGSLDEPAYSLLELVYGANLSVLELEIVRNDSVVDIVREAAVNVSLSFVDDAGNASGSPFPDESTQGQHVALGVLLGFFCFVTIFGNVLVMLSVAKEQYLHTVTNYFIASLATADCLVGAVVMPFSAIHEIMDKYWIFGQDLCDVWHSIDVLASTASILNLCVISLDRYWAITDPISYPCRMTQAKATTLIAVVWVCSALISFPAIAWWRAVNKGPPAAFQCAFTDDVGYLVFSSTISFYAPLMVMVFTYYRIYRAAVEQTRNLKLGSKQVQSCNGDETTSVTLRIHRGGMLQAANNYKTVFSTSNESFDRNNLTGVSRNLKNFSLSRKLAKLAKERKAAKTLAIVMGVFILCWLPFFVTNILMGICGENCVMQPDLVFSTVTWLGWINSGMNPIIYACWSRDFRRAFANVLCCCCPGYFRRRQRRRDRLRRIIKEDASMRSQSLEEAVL

[3] = biological target: T1, AaDOP2; experiment: HTRF cAMP accumulation concentration response assay (Cisbio Dynamic 2); assay type: cell-based
[4] = system: Ae. aegypti L3 larvae; experiment: whole plant or invertebrate; details: Aedes aegypti
[5] = system: adult Reticulitermes flavipes; experiment: Termite immersion assay; assay type: in vivo; details: 100 mM compound (Fipronil 500 μM), immersion, adult termite
Source text: A series of whole organism bioassays was developed to further evaluate the toxicity of chemistries to a range of agricultural, veterinary and public health pests and non-target insects (Tables 12 and 13). These assays are designed to rapidly explore the biological activity spectrum of chemistries as well as to facilitate initial investigations of the mode of action of insecticidal compounds. Briefly, assays were developed for the German cockroach (Blatella germanica, urban pest), termite (Reticulitermes flavipes; urban pest), lone star tick (Amblyomma americana; veterinary and public health pest), soybean aphid (Aphis glycines, agricultural pest) and honeybee (Apis mellifera; beneficial, non-target insect). The assays were designed to test the toxicity and speed of kill of multiple chemistries on contact. Each of these assays was performed as a single point dose experiment in triplicate using either topical application of compound to the ventral thorax (1 μl of a […] compound solution in 1:1 v:v DMSO:EtOH vehicle; 50-80 μg effective dose depending on compound) as is the case for our cockroach and honeybee assays, or 10 second immersion in a solution of the compound diluted in water or DMSO:[…] The assays were conducted in 24-well plate format with mortality assessment following incubation at 22° C. as described above. Commercial insecticides were incorporated in these assays to provide a positive control and permit initial comparative analyses. Lead chemistries identified in our in vivo screen have been evaluated in the cockroach and termite assays.

[6] = biological target: T1, AaDOP2; experiment: AaDOP2 agonist screen against the LOPAC1280 library; assay type: cell-based; details: 10 μM compound; percent of response to 1 μM dihydrexidine
[7] = system: Ae. aegypti L3 larvae; details: 400 μM, three independent experiments
[8] = system: adult male Blatella germanica; experiment: Cockroach assay of Table 16 (title contact assay, text feeding assay); assay type: in vivo; details: 200 mM compound
Source text: (§1) A series of whole organism bioassays was developed to further evaluate the toxicity of chemistries to a range of agricultural, veterinary and public health pests and non-target insects (Tables 12 and 13). These assays are designed to rapidly explore the biological activity spectrum of chemistries as well as to facilitate initial investigations of the mode of action of insecticidal compounds. Briefly, assays were developed for the German cockroach (Blatella germanica, urban pest), termite (Reticulitermes flavipes; urban pest), lone star tick (Amblyomma americana; veterinary and public health pest), soybean aphid (Aphis glycines, agricultural pest) and honeybee (Apis mellifera; beneficial, non-target insect). The assays were designed to test the toxicity and speed of kill of multiple chemistries on contact. Each of these assays was performed as a single point dose experiment in triplicate using either topical application of compound to the ventral thorax ([…]; 50-80 μg effective dose depending on compound) as is the case for our cockroach and honeybee assays, or 10 second immersion in a solution of the compound diluted in water or DMSO:EtOH to a final concentration of 100 μM. The assays were conducted in 24-well plate format with mortality assessment following incubation at 22° C. as described above. Commercial insecticides were incorporated in these assays to provide a positive control and permit initial comparative analyses. Lead chemistries identified in our in vivo screen have been evaluated in the cockroach and termite assays.

[9] = system: adult male Blatella germanica; experiment: Cockroach contact assay (topical application); assay type: in vivo; details: 200 mM compound
Source text: as §1

[10] = 24 h, read-out: Toxicity to Aedes aegypti larvae (mortality) 24 hours
[11] = 48 h, read-out: Toxicity to Aedes aegypti larvae (mortality) 48 hours
[12] = 72 h, read-out: Toxicity to Aedes aegypti larvae (mortality) 72 hours
[13] = 0.5 h, read-out: percent mortality 0.5 hr, 400 uM, L3 larvae, value for this scoring time
[14] = 1 h, read-out: percent mortality 1 hr, 400 uM, L3 larvae, per scoring time
[15] = 2 h, read-out: percent mortality 2 hr, 400 uM, L3 larvae, per scoring time
[16] = 3 h, read-out: percent mortality 3 hr, 400 uM, L3 larvae, per scoring time
[17] = 4 h, read-out: percent mortality 4 hr, 400 uM, L3 larvae, per scoring time
[18] = 24 h, read-out: percent mortality 24 hr, 400 uM, L3 larvae, per scoring time
[19] = 48 h, read-out: Toxicity to Aedes aegypti larvae (mortality) 48 hours, 400 μM, L3 larvae, three independent experiments
[20] = 48 h, read-out: percent mortality 48 hr, 400 uM, L3 larvae, per scoring time
[21] = 72 h, read-out: Cumulative % Mortality (72 hrs), 400 uM, L3 larvae
[22] = 72 h, read-out: Toxicity to Aedes aegypti larvae (mortality) 72 hours, 400 μM, L3 larvae, three independent experiments
[23] = 72 h, read-out: percent mortality 72 hr, 400 uM, L3 larvae, per scoring time
[24] = 10 μM compound, 300 nM dopamine, quadruplicate

T1 sequence (H6D5H2 entry or part of it): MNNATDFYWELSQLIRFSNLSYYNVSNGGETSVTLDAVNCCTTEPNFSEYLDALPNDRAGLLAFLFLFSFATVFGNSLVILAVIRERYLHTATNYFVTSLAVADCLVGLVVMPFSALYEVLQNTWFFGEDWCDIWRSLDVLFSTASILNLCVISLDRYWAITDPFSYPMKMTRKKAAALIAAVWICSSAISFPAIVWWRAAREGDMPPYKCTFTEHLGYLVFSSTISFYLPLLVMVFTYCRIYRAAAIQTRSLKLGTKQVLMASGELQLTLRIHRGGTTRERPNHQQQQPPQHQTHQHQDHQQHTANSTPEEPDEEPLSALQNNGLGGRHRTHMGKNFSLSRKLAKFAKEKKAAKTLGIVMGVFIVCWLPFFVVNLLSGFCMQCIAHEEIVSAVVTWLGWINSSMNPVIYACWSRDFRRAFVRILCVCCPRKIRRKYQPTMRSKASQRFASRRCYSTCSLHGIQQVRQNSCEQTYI

Structure (SMILES): CNCCCC1c2ccccc2C=Cc2ccccc21 [Protriptyline, 3-(5H-dibenzo[a,d][7]annulen-5-yl)-N-methylpropan-1-amine]
- % inhibition of DA activity (Aedes cell-based assay screen) [1]: 82%
- % of the SCH23390 effect [1]: 82%
- inhibition at 10 µM [2]: 75%
- IC50 ([3]; read-out: IC50 ± S.E.M. (nM), HTRF cAMP assay): 600 ± 250 nM
- mortality at 400 µM [4, 10]: 37%
- mortality at 400 µM [4, 11]: 43%
- mortality at 400 µM [4, 12]: 53%

Structure (SMILES): N#Cc1nn(-c2c(Cl)cc(C(F)(F)F)cc2Cl)c(N)c1[S+]([O-])C(F)(F)F (stereo not drawn) [Fipronil]
- % Mortality 24 hrs [5]: 90%
- % Mortality 48 hrs [5]: 100%
- % Mortality 72 hrs [5]: 100%
- % Mortality 120 hrs [5]: 100%
- % Mortality 240 hrs [5]: 100%

- % of DHX [6]: 34%
Structure (SMILES): Nc1ncnc2c1ncn2[C@@H]1O[C@H](C(=O)NC2CC2)[C@@H](O)[C@H]1O [CPCA]

Structure (SMILES): CN1C2CCC1CC(OC(c1ccccc1)c1ccccc1)C2 (stereo not drawn) [Benztropine, (3-endo)-3-(diphenylmethoxy)-8-methyl-8-azabicyclo[3.2.1]octane]
- inhibition at 10 µM [2]: 84%
- Toxicity to Aedes aegypti larvae (mortality) 24 hours [7]: 100%
- mortality at 400 µM [4, 13]: 0%
- mortality at 400 µM [4, 14]: 0%
- mortality at 400 µM [4, 15]: 20%
- mortality at 400 µM [4, 16]: 0%
- mortality at 400 µM [4, 17]: 0%
- mortality at 400 µM [4, 18]: 40%
- mortality at 400 µM [4, 19]: 100%
- mortality at 400 µM [4, 20]: 0%
- mortality at 400 µM [4, 21]: 100%
- mortality at 400 µM [4, 22]: 100%
- mortality at 400 µM [4, 23]: 0%

Structure (SMILES): CNCCCN1c2ccccc2CCc2ccc(Cl)cc21 [Norclomipramine]
- IC50 ([3]; AaDOP2 expressing cells in the presence of dopamine, No Inhibition = <10% inhibition at 3 μM test compound, read-out: IC50 ± S.E.M. (nM), HTRF cAMP assay): 670 ± 35 nM
- Toxicity to Aedes aegypti larvae (mortality) 24 hours [7]: 40%
- Toxicity to Aedes aegypti larvae (mortality) 48 hours [7]: 63%
- Toxicity to Aedes aegypti larvae (mortality) 72 hours [7]: 70%

Structure (SMILES): CNCCC=C1c2ccccc2CCc2ccccc21 [Nortriptyline, 3-(10,11-dihydro-5H-dibenzo[a,d]cyclohepten-5-ylidene)-N-methyl-1-propanamine]
- % of the SCH23390 effect [1, 24]: 96%
- % inhibition of DA activity (Aedes cell-based assay screen) ([1]; LOPAC1280 screen hits): 96%
- inhibition at 10 µM [2]: 79%
- IC50 ([3]; IC50 ± S.E.M. (nM), HTRF cAMP assay): 140 ± 50 nM
- mortality at 400 µM [4, 10]: 43%
- mortality at 400 µM [4, 11]: 63%
- mortality at 400 µM [4, 12]: 73%

Structure (SMILES): CN1CCN(C2=Nc3ccccc3Oc3ccc(Cl)cc32)CC1 [Loxapine, 2-Chloro-11-(4-methylpiperazin-1-yl)dibenzo[b,f][1,4]oxazepine]
- % of the SCH23390 effect [1, 24]: 97%
- % inhibition of DA activity (Aedes cell-based assay screen) ([1]; LOPAC1280 screen hits): 97%
- inhibition at 10 µM [2]: 93%
- Toxicity to Aedes aegypti larvae (mortality) 24 hours [7]: 97%
- mortality at 400 µM [4, 13]: 30%
- mortality at 400 µM [4, 14]: 0%
- mortality at 400 µM [4, 15]: 30%
- mortality at 400 µM ([4]; 3 h, read-out: mortality within three hours, 400 μM, L3 larvae): > 70%
- mortality at 400 µM [4, 16]: 0%
- mortality at 400 µM [4, 17]: 0%
- mortality at 400 µM [4, 18]: 0%
- mortality at 400 µM [4, 19]: 100%
- mortality at 400 µM [4, 20]: 0%
- mortality at 400 µM [4, 21]: 100%
- mortality at 400 µM [4, 22]: 100%
- mortality at 400 µM [4, 23]: 0%

Structure (SMILES): CCCN(CCC)CCc1ccc(O)c(O)c1 [Dipropyldopamine]
- % of DHX [6]: 38%

Structure (SMILES): COC(=O)N(C(=O)N1CO[C@@]2(C(=O)OC)Cc3cc(Cl)ccc3C2=N1)c1ccc(OC(F)(F)F)cc1 [Indoxacarb]
- % Mortality 24 hrs [8]: 63%
- % Mortality 48 hrs [8]: 63%
- % Mortality 72 hrs [8]: 80%
- % Mortality 120 hrs [8]: 100%
- % Mortality 24 hrs [9]: 50%
- % Mortality 48 hrs [9]: 50%
- % Mortality 72 hrs [9]: 70%
- % Mortality 120 hrs [9]: 100%
- % Mortality 240 hrs [9]: 100%

Structure (SMILES): Br.Cc1cccc(C2CN(C)CCc3c2cc(O)c(O)c3Cl)c1 (stereo not drawn) [SKF 83959]
- % Inhibition (of response to dopamine), Isdop2 screen [2]: 87%
- % of DHX [6]: 30%

Structure (SMILES): Br.Oc1ccc(C2CNCc3sccc32)cc1O (stereo not drawn) [SKF 89626]
- % of DHX [6]: 101%

Structure (SMILES): CCCN1CCc2cccc3c2[C@H]1Cc1ccc(O)c(O)c1-3 [R(−)-Propyl-NPA]
- % of DHX [6]: 68%

- % of DHX [6]: 75%
Structure (SMILES): Nn1nnc2ccccc21 [1-Aminobenzotriazole]

- % of DHX [6]: 34%
Structure (SMILES): C=C[C@@]1(C)CC(=O)[C@]2(O)[C@@]3(C)[C@@H](O)CCC(C)(C)[C@@H]3[C@H](O)[C@H](OC(C)=O)[C@@]2(C)O1 [Forskolin]

From US20140350081A1, “INSECT G-COUPLED RECEPTORS USEFUL AS TARGETS FOR INSECTICIDES AND COMPOUNDS AND REAGENTS IDENTIFIED USING THE SAME” (priority 2011, published 2014)
